Measured values: patent US20120022142A1, “RNA Interference Mediated Inhibition of Signal Transducer and Activator of Transcription 1 (STAT1) Gene Expression Using Short Interfering Nucleic Acid (siNA)” (Merck Sharp & Dohme Corp., priority 2009, published 2012)
[invAb] = inverted abasic unit; m = 2'-O-methyl; r = 2'-OH (RNA); f = 2'-fluoro

Test system: STAT1 mRNA
Assay: Stat1 mRNA knockdown and EC50 in human bronchial epithelial cells (NHBE)
Type: cell-based
Settings: 48 hours post transfection, mean of 3 donors; for EC50: Stat1 mRNA knockdown; for Maximum mRNA Knockdown: Stat1 mRNA
Protocol: Human Bronchial Epithelial cells (NHBE cells) obtained from Lonza (Cat. No. CC-2540) were grown at 37 degrees in the presence of 5% CO2 and cultured in BEBM basal medium (Lonza, Cat. No. CC-3171) on Biocoat Collagen1 coated flasks (Becton Dickinson).
Cells were plated in collagen 1 coated plates and cultured in appropriate culture media. The cells were cultured for 24 hours after plating at 37 deg in the presence of 5% CO2. siNAs were diluted in OptiMEM 1 to 1 uM and the transfection agent to 25 ug/ml. For formulation of the siNAs equal volumes of the diluted siNA and delivery lipid were combined and incubated for 20 minutes at room temperature. Cells were meanwhile trypsinised and resuspended in antibiotic free BEBM media at 150,000 cells/ml. 20 ul of the formulated siNA and 80 ul of BEBM media was added per well of a 96 well plate (6 replicates/data point/siNA concentration) so as to give a nine point dose range of the siNAs (100 nM, 30 nM, 10 nM, 3 nM, 1 nM, 0.3 nM, 0.1 nM, 0.03 nM, 0.01 nM). The time of incubation with the transfection agent-siNA complexes were 48 hours with one change of media at 24 hours.
Total RNA was isolated from the cells in the 96-well plate format using the Automated SV96 Total RNA Isolation System (Promega) according to the manufacturer's instructions. The Biomek 2000 Laboratory Automation Workstation (Beckman Coulter) was used to apply the transfected cell lysates to a silica membrane. RNase-Free DNase I was then applied directly to the silica membrane to digest contaminating genomic DNA. The bound total RNA was further purified from contaminating salts, proteins and cellular impurities by simple washing steps. Finally, total RNA was eluted from the membrane by the addition of Nuclease-Free Water.
A series of probes and primers were used for the detection of mRNA transcripts of STAT1, OAS1, and GAPDH (as control/normalisation) in the human cell lines. The assays were performed on an ABI 7900HT instrument according to the manufacturer's instructions.
With TaqMan data, critical threshold values (Ct) were converted to copy numbers corresponding to the particular gene analysed in each well of the 384 well plate. Six identical wells were prepared in each plate for a given treatment. […] Determination of the percentage coefficient of variation (CV) (% C.V.=[standard deviation/average]*100) allowed the omitting of wells whose value was an outlier (so that % C.V.<25). Relative abundance (aka relative expression) of a gene was determined by dividing the mean copy number of that gene with its GAPDH counterpart in that particular sample.
EC50 values were calculated from the data using sigma plot. All calculations of the efficacy and potency of the siNAs were done relative to the non-targeting control siNA.

Substance	EC50 [nM]	Maximum mRNA Knockdown [%]
25368-DC: STAT1 siNA duplex, human target site 782; modified strands SEQ ID NO: 73 and 74 (chain 1 GUAAAGUCAGAAAUGUGAATT; chain 2 UUCACAUUUCUGACUUUACUU; chain 1: DNA at AGT, 2'-fluoro at CU, [invAb] at 5' end, 3' end, backbone not given here; chain 2: sugars from the 5' end rrrmfmfffffmmffffmfmm, backbone not given here)	0.06	93
25372-DC: STAT1 siNA duplex, human target site 968; modified strands SEQ ID NO: 81 and 82 (chain 1 UUGACAAUAAGAGAAAGGATT; chain 2 UCCUUUCUCUUAUUGUCAAUU; chain 1: DNA at AGT, 2'-fluoro at CU, [invAb] at 5' end, 3' end, backbone not given here; chain 2: sugars from the 5' end rrrffffffffmffmffmmmm, backbone not given here)	0.5	96
